Test results taken from patent US20240261294A1, “METHOD FOR TREATING IDH INHIBITOR-RESISTANT SUBJECTS” (Eli Lilly and Company, priority 2021, published 2024).
Positions count from the first letter of the chain named. Where two headings read alike, the source gives them in different places.

Key:
IDH2 R140Q_G260A cis = biological target: T1, IDH2 R140Q_G260A cis (Homo sapiens, UniProt P48735, G260A/R140Q); experiment: Inhibition of 2-HG production in IDH2 mutant U-87 MG cells; assay type: cell-based; details: 16 hours incubation, 50K cells/well, 100 μl media/well, read-out: Relative IC50 (nM) Mean, inhibition of 2-HG production
T1 construct: expressed in transfected cells; host or cells: U-87 MG
T1 sequence (P48735 40-452 R140Q/G260A): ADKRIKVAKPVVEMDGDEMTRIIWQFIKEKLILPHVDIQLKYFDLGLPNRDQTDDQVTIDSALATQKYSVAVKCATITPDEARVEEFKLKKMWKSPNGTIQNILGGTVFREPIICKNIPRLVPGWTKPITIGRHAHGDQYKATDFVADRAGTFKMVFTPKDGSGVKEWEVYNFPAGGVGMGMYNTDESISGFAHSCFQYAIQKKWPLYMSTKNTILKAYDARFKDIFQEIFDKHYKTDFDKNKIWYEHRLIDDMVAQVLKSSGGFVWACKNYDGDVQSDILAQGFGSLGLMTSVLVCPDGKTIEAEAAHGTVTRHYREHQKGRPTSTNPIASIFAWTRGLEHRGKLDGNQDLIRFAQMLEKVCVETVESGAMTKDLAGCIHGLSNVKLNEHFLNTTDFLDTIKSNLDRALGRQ

IDH2 R140Q_P167R cis = biological target: T2, IDH2 R140Q_P167R cis (Homo sapiens, UniProt P48735, P167R/R140Q); experiment: as above; assay type: cell-based; details: read-out: Relative IC50 (nM) Mean, inhibition of 2-HG production
T2 construct: expressed in transfected cells; host or cells: U-87 MG
T2 sequence (P48735 40-452 R140Q/P167R): T1 sequence (P48735 40-452 R140Q/G260A) with P128R, A221G

C=CC(=O)N1CCN([C@@H](CC2CC2)c2ccc([C@H](C)Nc3ncc4c(n3)N(CC)C(=O)OC4)cc2)CC1 [Compound A, 7-[[(1S)-1-[4-[(1S)-2-cyclopropyl-1-(4-prop-2-enoylpiperazin-1-yl)ethyl]phenyl]ethyl]amino]-1-ethyl-4H-pyrimido[4,5-d][1,3]oxazin-2-one]
IC50 (IDH2 R140Q_G260A cis): 7 nM
IC50 (IDH2 R140Q_P167R cis; 16 hours incubation, 50K cells/well, 100 μl media/well): 639 nM
IC50 (IDH2 R140Q_P167R cis; 72 hours incubation, 12.5K cells/well): 104 nM
